{"source": "patent US20260103444A1", "about": "“8-HYDROXYQUINOLINE COMPOUND AND USE THEREOF” (OSAKA UNIVERSITY, priority 2022, published 2026)", "key": {"cMLCK [1]": {"biological_target": "T1, cMLCK (Homo sapiens, UniProt Q32MK0)", "T1 construct": "BTN (vendor prefix; by own knowledge, biotinylated); purchased Carna Bioscience #02-460-20N", "experiment": "cMLCK activity, ADP-Glo kinase assay", "assay_type": "biochemical", "conditions": "for cMLCK activity compared with the compound of Synthesis Example 1: ADP-Glo kinase assay, relative to Synthesis Example 1 (LEU-0992); for cMLCK activation action, dose dependence: ADP-Glo assay; for specificity for cMLCK: versus smMLCK and skMLCK", "procedure": "The cMLCK activation action by 8-hydroxyquinoline compounds was measured by using the ADP-Glo kinase assay (Promega) according to the manufacturer's protocol.\n(§1) Purchased purified human cMLCK (BTN-cMLCK, #02-460-20N, Carna Bioscience) as well as in-house purified calmodulin (NM 006888) and cardiac myosin regulatory light chain (MLC2v) (NM 000432) were used to perform phosphorylation to thereby establish an in vitro kinase assay system for measuring cMLCK activity according to the ADP-Glo assay (Promega) or Kumagai method. This system was then applied to high-throughput screening (HTS). The HTS was performed by using multiple domestic compound libraries (compound concentration: 10 μM), and structural development of candidate compounds was performed, thereby developing cMLCK activators based on the 8-hydroxyquinoline (8HQ) skeleton."}, "cMLCK [2]": {"biological_target": "T1, cMLCK", "experiment": "enzymatic study (Michaelis-Menten kinetics) of cMLCK", "assay_type": "biochemical", "procedure": "as §1"}, "cMLCK [3]": {"biological_target": "T1, cMLCK", "experiment": "phosphorylation of MLC2v by phos-tag PAGE", "assay_type": "biochemical"}, "[4]": {"biological_target": "T2, human smooth muscle-type MLCK (smMLCK) (Homo sapiens, UniProt Q15746)", "T2 construct": "made in house", "experiment": "specificity: in-vitro kinase reaction with smMLCK and its substrate MYL9, ADP-Glo assay", "assay_type": "biochemical", "conditions": "smMLCK with substrate MYL9, ADP-Glo assay", "procedure": "(§2) Next, the specificity of the two 8HQ compounds (LEU-1142 and LEU-1170) for human smooth muscle-type MLCK (smMLCK, NM 053025) and human skeletal muscle-type MLCK (skMLCK, NM 033118), which are cMLCK family proteins, was examined (FIGS. 7-1 and 7-2). In-vitro kinase reactions were performed using smMLCK and its substrate MYL9 (NM 006097), and skMLCK and its substrate MYLPF (NM 013292), which had been all purified in-house, and their activity was measured according to the ADP-Glo assay."}, "[5]": {"biological_target": "T3, human skeletal muscle-type MLCK (skMLCK) (Homo sapiens, UniProt Q9H1R3)", "T3 construct": "made in house", "experiment": "specificity: in-vitro kinase reaction with skMLCK and its substrate MYLPF, ADP-Glo assay", "assay_type": "biochemical", "conditions": "skMLCK with substrate MYLPF", "procedure": "as §2"}, "[6]": {"conditions": "phase 3 clinical trial; cited from earlier work"}, "[7]": {"test_system": "wild-type human iPS cardiomyocytes", "experiment": "intracellular calcium dynamics (Cal-520, FDSS kinetic plate imager)", "assay_type": "cell-based", "conditions": "wild-type iPSC-CMs, various concentrations, with pacing", "procedure": "CTAs: average changes of calcium transient amplitude at systole, PWD50: pulse width duration measured at 50% CTAs\nWild-type iPSC-CMs were seeded on a 96-well plate at a density of 5×10^4 cells/well and cultured in DMEM with 10% FBS for 24 hours. Subsequently, Cal-520 (ab171868, Abcam) was then added to a final concentration of 5 μM, and the cells were cultured for an additional hour. After removing the medium and washing with HHBS buffer, the buffer was replaced with FluoroBrite DMEM containing various concentrations of LEUO-1154, isoproterenol (positive control group: catecholamine stimulation), or DMSO (negative control group). Intracellular calcium dynamics was then measured with pacing by using an FDSS/ρCell kinetic plate imager (Hamamatsu Photonics K. K.)."}}}
{"smiles": "Oc1cccnc1NC(c1ccc(F)cc1)c1ccc2cccnc2c1O", "note": "(stereo not drawn) [LEU-0942, 7-{(4-fluorophenyl) [(3-hydroxypyridin-2-yl)amino]methyl}quinolin-8-ol]", "values": [{"measurement": "cMLCK activity compared with the compound of Synthesis Example 1", "setting": "cMLCK [1]", "value": "weaker"}]}
{"smiles": "Oc1c(C(c2ccc(C(F)(F)F)cc2)N2CCCCC2)ccc2cccnc12", "note": "(stereo not drawn) [LEU-0943, 7-(piperidin-1-yl [4-(trifluoromethyl)phenyl]methyl}quinolin-8-ol]", "values": [{"measurement": "cMLCK activity compared with the compound of Synthesis Example 1", "setting": "cMLCK [1]", "value": "weaker"}]}
{"smiles": "O=[N+]([O-])c1cccc(C(Nc2nccs2)c2ccc3cccnc3c2O)c1", "note": "(stereo not drawn) [LEU-0944, 7-[(3-nitrophenyl) (thiazol-2-ylamino)methyl]quinolin-8-ol]", "values": [{"measurement": "cMLCK activity compared with the compound of Synthesis Example 1", "setting": "cMLCK [1]", "value": "equivalent"}]}
{"smiles": "Oc1ccccc1C(Nc1nccs1)c1ccc2cccnc2c1O", "note": "(stereo not drawn) [LEU-0945, 7-[(2-hydroxyphenyl) (thiazol-2-ylamino)methyl]quinolin-8-ol]", "values": [{"measurement": "cMLCK activity compared with the compound of Synthesis Example 1", "setting": "cMLCK [1]", "value": "weaker"}]}
{"smiles": "COc1ccc(C(NC(C)=O)c2cc([N+](=O)[O-])c3cccnc3c2O)cc1", "note": "(stereo not drawn) [LEU-0990, N-[(8-hydroxy-5-nitroquinolin-7-yl) (4-methoxyphenyl)methyl]acetamide]", "values": [{"measurement": "cMLCK activity compared with the compound of Synthesis Example 1", "setting": "cMLCK [1]", "value": "weaker"}]}
{"smiles": "CCC(=O)NC(c1ccc(OC)cc1)c1cc([N+](=O)[O-])c2cccnc2c1O", "note": "(stereo not drawn) [LEU-0993]", "values": [{"measurement": "cMLCK activity compared with the compound of Synthesis Example 1", "setting": "cMLCK [1]", "value": "equivalent"}]}
{"smiles": "COc1ccc(C(Nc2ccccn2)c2cc(Cl)c3cccnc3c2O)cc1[N+](=O)[O-]", "note": "(stereo not drawn) [LEU-0997, 5-chloro-7-[(4-methoxy-3-nitrophenyl) (pyridin-2-ylamino)methyl]quinolin-8-ol]", "values": [{"measurement": "cMLCK activity compared with the compound of Synthesis Example 1", "setting": "cMLCK [1]", "value": "equivalent"}]}
{"smiles": "Oc1c(C(Nc2ccccn2)c2cccnc2)cc(Cl)c2cccnc12", "note": "(stereo not drawn) [LEU-0998, 5-chloro-7-[(pyridin-2-ylamino) (pyridin-3-yl)methyl]quinolin-8-ol]", "values": [{"measurement": "cMLCK activity compared with the compound of Synthesis Example 1", "setting": "cMLCK [1]", "value": "weaker"}]}
{"smiles": "Oc1c(CN2CCC(Cc3ccccc3)CC2)cc(Cl)c2cccnc12", "note": "[LEU-0999, 7-[(4-benzylpiperidin-1-yl)methyl]-5-chloroquinolin-8-ol]", "values": [{"measurement": "cMLCK activity compared with the compound of Synthesis Example 1", "setting": "cMLCK [1]", "value": "weaker"}]}
{"smiles": "Oc1c(C(Nc2nccs2)c2ccccc2)ccc2cccnc12", "note": "(stereo not drawn) [LEU-1008, 7-[phenyl(thiazol-2-ylamino)methyl]quinolin-8-ol]", "values": [{"measurement": "cMLCK activity compared with the compound of Synthesis Example 1", "setting": "cMLCK [1]", "value": "equivalent"}]}
{"smiles": "CCCCC(=O)NC(c1ccc(OC)cc1)c1cc(Cl)c2cccnc2c1O", "note": "(stereo not drawn) [LEU-1018, N-[(5-chloro-8-hydroxyquinolin-7-yl) (4-methoxyphenyl)methyl]pentanamide]", "values": [{"measurement": "cMLCK activity compared with the compound of Synthesis Example 1", "setting": "cMLCK [1]", "value": "weaker"}]}
{"smiles": "CCCCC(=O)NC(c1ccc(OC)cc1)c1ccc2cccnc2c1O", "note": "(stereo not drawn) [LEU-1128, N-[(8-hydroxyquinolin-7-yl) (4-methoxyphenyl)methyl]pentanamide]", "values": [{"measurement": "cMLCK activity compared with the compound of Synthesis Example 1", "setting": "cMLCK [1]", "value": "weaker"}]}
{"smiles": "CCCCC(=O)NC(c1ccc(-n2ccnc2)cc1)c1cc([N+](=O)[O-])c2cccnc2c1O", "note": "(stereo not drawn) [LEU-1142, N-{[4-(1H-imidazol-1-yl)phenyl] (8-hydroxy-5-nitroquinolin-7-yl)methyl}pentanamide]", "values": [{"measurement": "cMLCK activation action, dose dependence", "setting": "cMLCK [1]", "value": "dose-dependent"}, {"measurement": "specificity for cMLCK", "setting": "cMLCK [1]", "value": "high specificity for cMLCK"}, {"measurement": "effect on Km", "setting": "cMLCK [2]", "value": "did not affect Km"}, {"measurement": "phosphorylation of MLC2v", "setting": "cMLCK [3]", "value": "increase the phosphorylation of MLC2v"}, {"measurement": "specificity for smMLCK", "setting": "[4]", "value": "Neither compound showed specificity"}, {"measurement": "specificity for skMLCK", "setting": "[5]", "value": "Neither compound showed specificity"}]}
{"smiles": "CCCCC(=O)NC(c1ccc(N2CCOCC2)nc1)c1cc([N+](=O)[O-])c2cccnc2c1O", "note": "(stereo not drawn) [LEU-1170, N-[(8-hydroxy-5-nitroquinolin-7-yl) (6-morpholinopyridin-3-yl)methyl]pentanamide]", "values": [{"measurement": "cMLCK activation action, dose dependence", "setting": "cMLCK [1]", "value": "dose-dependent"}, {"measurement": "specificity for cMLCK", "setting": "cMLCK [1]", "value": "high specificity for cMLCK"}, {"measurement": "effect on Km", "setting": "cMLCK [2]", "value": "did not affect Km"}, {"measurement": "phosphorylation of MLC2v", "setting": "cMLCK [3]", "value": "increase the phosphorylation of MLC2v"}, {"measurement": "specificity for smMLCK", "setting": "[4]", "value": "Neither compound showed specificity"}, {"measurement": "specificity for skMLCK", "setting": "[5]", "value": "Neither compound showed specificity"}]}
{"smiles": "COc1ccc(C(NC(=O)C(C)C)c2cc([N+](=O)[O-])c3cccnc3c2O)cc1", "note": "(stereo not drawn) [LEU-1220, N-[(8-hydroxy-5-nitroquinolin-7-yl) (4-methoxyphenyl)methyl]isobutyramide]", "values": [{"measurement": "cMLCK activity compared with the compound of Synthesis Example 1", "setting": "cMLCK [1]", "value": "equivalent"}]}
{"smiles": "COC(=O)N1CCN(Cc2cccc(NC(=O)Nc3ccc(C)nc3)c2F)CC1", "note": "[Omecamtiv mecarbil (OM), Omecamtiv mecarbil]", "values": [{"measurement": "time to onset of heart failure", "setting": "[6]", "value": "prolonging the time to onset of heart failure without worsening prognosis"}]}
{"smiles": "CC(C)NCC(O)c1ccc(O)c(O)c1", "note": "(stereo not drawn) [isoproterenol, reference compound]", "values": [{"measurement": "calcium dynamics", "setting": "[7]", "value": "enhanced calcium dynamics"}]}
